Data: the NIST ThermoML archive (doi:10.1016/j.jct.2013.03.013)
Where “and” joins values, the source holds several entries; their conditions need not be identical. Equal entries are not always repeated.

Settings: Liquid, Vibrating wire viscometry

F/C=C/C(F)(F)F [trans-1,3,3,3-tetrafluoropropene]
Settings | viscosity [mPa·s]
243.16 K, 61 kPa | 0.3906
243.16 K, 1000 kPa | 0.395
243.16 K, 3000 kPa | 0.4028
243.16 K, 5000 kPa | 0.4116
243.16 K, 10000 kPa | 0.4321
243.16 K, 15000 kPa | 0.4532
243.16 K, 20000 kPa | 0.4742
243.16 K, 25000 kPa | 0.4951
243.16 K, 30000 kPa | 0.517
253.16 K, 97 kPa | 0.3409
253.16 K, 1000 kPa | 0.3462
253.16 K, 3000 kPa | 0.3538
253.16 K, 5000 kPa | 0.3613
253.16 K, 10000 kPa | 0.381
253.16 K, 15000 kPa | 0.3999
253.16 K, 20000 kPa | 0.4192
253.16 K, 25000 kPa | 0.4374
253.16 K, 30000 kPa | 0.4554
263.16 K, 148 kPa | 0.2942
263.16 K, 1000 kPa | 0.3043
263.16 K, 3000 kPa | 0.3119
263.16 K, 5000 kPa | 0.3189
263.16 K, 10000 kPa | 0.3358
263.16 K, 15000 kPa | 0.3534
263.16 K, 20000 kPa | 0.3707
263.16 K, 25000 kPa | 0.3875
263.16 K, 30000 kPa | 0.4047
273.15 K, 217 kPa | 0.2572
273.15 K, 1000 kPa | 0.2626
273.15 K, 3000 kPa | 0.2702
273.15 K, 5000 kPa | 0.2776
273.15 K, 10000 kPa | 0.2949
273.15 K, 15000 kPa | 0.3127
273.15 K, 20000 kPa | 0.3284
273.15 K, 25000 kPa | 0.3451
273.15 K, 30000 kPa | 0.3616
283.14 K, 308 kPa | 0.2271
283.14 K, 1000 kPa | 0.2318
283.14 K, 3000 kPa | 0.2383
283.14 K, 5000 kPa | 0.2442
283.14 K, 10000 kPa | 0.2602
283.14 K, 15000 kPa | 0.2755
283.14 K, 20000 kPa | 0.2908
283.14 K, 25000 kPa | 0.3061
283.14 K, 30000 kPa | 0.3203
293.15 K, 428 kPa | 0.2016
293.15 K, 1000 kPa | 0.2035
293.15 K, 3000 kPa | 0.2097
293.15 K, 5000 kPa | 0.216
293.15 K, 10000 kPa | 0.2315
293.15 K, 15000 kPa | 0.2459
293.15 K, 20000 kPa | 0.2606
293.15 K, 25000 kPa | 0.2741
293.15 K, 30000 kPa | 0.2877
303.15 K, 579 kPa | 0.179
303.15 K, 1000 kPa | 0.1816
303.15 K, 3000 kPa | 0.1875
303.15 K, 5000 kPa | 0.1933
303.15 K, 10000 kPa | 0.2085
303.15 K, 15000 kPa | 0.2227
303.15 K, 20000 kPa | 0.2364
303.15 K, 25000 kPa | 0.2495
303.15 K, 30000 kPa | 0.2625
313.14 K, 767 kPa | 0.1587
313.14 K, 1000 kPa | 0.1601
313.14 K, 3000 kPa | 0.1663
313.14 K, 5000 kPa | 0.1728
313.14 K, 10000 kPa | 0.1873
313.14 K, 15000 kPa | 0.2008
313.14 K, 20000 kPa | 0.2151
313.14 K, 25000 kPa | 0.2283
313.14 K, 30000 kPa | 0.2401
323.16 K, 998 kPa | 0.1405
323.16 K, 3000 kPa | 0.1479
323.16 K, 5000 kPa | 0.1539
323.16 K, 10000 kPa | 0.1687
323.16 K, 15000 kPa | 0.183
323.16 K, 20000 kPa | 0.1968
323.16 K, 25000 kPa | 0.2093
323.16 K, 30000 kPa | 0.221
333.16 K, 1277 kPa | 0.1239
333.16 K, 3000 kPa | 0.1305
333.16 K, 5000 kPa | 0.1373
333.16 K, 10000 kPa | 0.1527
333.16 K, 15000 kPa | 0.1671
333.16 K, 20000 kPa | 0.1796
333.16 K, 25000 kPa | 0.1914
333.16 K, 30000 kPa | 0.2033
343.16 K, 1611 kPa | 0.1085
343.16 K, 3000 kPa | 0.115
343.16 K, 5000 kPa | 0.1227
343.16 K, 10000 kPa | 0.1383
343.16 K, 15000 kPa | 0.1527
343.16 K, 20000 kPa | 0.1657
343.16 K, 25000 kPa | 0.1773
343.16 K, 30000 kPa | 0.1888
353.16 K, 2008 kPa | 0.0939
353.16 K, 3000 kPa | 0.0993
353.16 K, 5000 kPa | 0.1072
353.16 K, 10000 kPa | 0.1241
353.16 K, 15000 kPa | 0.139
353.16 K, 20000 kPa | 0.1516
353.16 K, 25000 kPa | 0.1638
353.16 K, 30000 kPa | 0.1749
363.16 K, 2475 kPa | 0.079
363.16 K, 3000 kPa | 0.0833
363.16 K, 5000 kPa | 0.0932
363.16 K, 10000 kPa | 0.1125
363.16 K, 15000 kPa | 0.1273
363.16 K, 20000 kPa | 0.1401
363.16 K, 25000 kPa | 0.1516
363.16 K, 30000 kPa | 0.1622
373.17 K, 3026 kPa | 0.0632
373.17 K, 5000 kPa | 0.0809
373.17 K, 10000 kPa | 0.1013
373.17 K, 15000 kPa | 0.1155
373.17 K, 20000 kPa | 0.1286
373.17 K, 25000 kPa | 0.1403
373.17 K, 30000 kPa | 0.1514

FCC(F)(F)F [1,1,1,2-tetrafluoroethane]
viscosity
Settings | 1000 kPa | 2000 kPa | 3000 kPa | 5000 kPa | 10000 kPa | 15000 kPa | 20000 kPa | 25000 kPa | 30000 kPa
253.14 K | 0.3564 mPa·s | – | – | 0.3729 mPa·s | 0.3937 mPa·s | 0.4141 mPa·s | 0.4329 mPa·s | 0.4553 mPa·s | 0.4776 mPa·s
253.16 K | – | – | 0.3626 mPa·s | – | 0.3914 mPa·s | – | – | – | –
273.15 K | 0.2713 mPa·s | – | 0.2791 mPa·s | 0.2873 mPa·s | 0.3052 mPa·s and 0.3031 mPa·s | 0.3211 mPa·s | 0.3387 mPa·s | 0.357 mPa·s | 0.3759 mPa·s
293.15 K | 0.2115 mPa·s | – | 0.2177 mPa·s | 0.2227 mPa·s | 0.2398 mPa·s and 0.2412 mPa·s | 0.2556 mPa·s | 0.2725 mPa·s | 0.287 mPa·s | 0.3023 mPa·s
313.14 K | – | 0.1653 mPa·s | 0.1693 mPa·s | 0.1758 mPa·s | 0.1918 mPa·s and 0.1929 mPa·s | 0.2068 mPa·s | 0.2228 mPa·s | 0.236 mPa·s | 0.2501 mPa·s
333.16 K | – | 0.1247 mPa·s | 0.1296 mPa·s | 0.1373 mPa·s | 0.1537 mPa·s and 0.1543 mPa·s | 0.1703 mPa·s | 0.1839 mPa·s | 0.1966 mPa·s | 0.2089 mPa·s
353.15 K | – | – | – | 0.1034 mPa·s | 0.1246 mPa·s | – | – | – | –
353.16 K | – | – | 0.0916 mPa·s | 0.1032 mPa·s | 0.124 mPa·s | 0.1391 mPa·s | 0.1535 mPa·s | 0.1657 mPa·s | 0.1779 mPa·s
